Laboratory results from patent publication US20250375450A1, “SMARCA2/4 INHIBITION AS A STRATEGY TO TREAT TUMORS THAT HARBOR ABERRANT BAF ASSEMBLIES” (BOARD OF REGENTS, THE UNIVERSITY OF TEXAS SYSTEM, priority 2022, published 2025).
Entries after “also recorded” stand apart in the source; their conditions may differ.

Experiments:
SMARCA2 = biological target: T1, SMARCA2 (Homo sapiens, UniProt P51531); test: ATPase activity of SMARCA2 on different DNA/chromatin substrates (enzyme-coupled phosphate release assay); assay type: biochemical; conditions: 5 μM AT-301; 147 bp nucleosomal DNA, 29 bp duplex DNA, NCP
T1 construct: The SMARCA2-1 gene (amino acids 437-1493) encompassing all domains; made in house; host or cells: expiSF9 insect cells (baculovirus, pFASTBac1)
T1 sequence (P51531 437-1493): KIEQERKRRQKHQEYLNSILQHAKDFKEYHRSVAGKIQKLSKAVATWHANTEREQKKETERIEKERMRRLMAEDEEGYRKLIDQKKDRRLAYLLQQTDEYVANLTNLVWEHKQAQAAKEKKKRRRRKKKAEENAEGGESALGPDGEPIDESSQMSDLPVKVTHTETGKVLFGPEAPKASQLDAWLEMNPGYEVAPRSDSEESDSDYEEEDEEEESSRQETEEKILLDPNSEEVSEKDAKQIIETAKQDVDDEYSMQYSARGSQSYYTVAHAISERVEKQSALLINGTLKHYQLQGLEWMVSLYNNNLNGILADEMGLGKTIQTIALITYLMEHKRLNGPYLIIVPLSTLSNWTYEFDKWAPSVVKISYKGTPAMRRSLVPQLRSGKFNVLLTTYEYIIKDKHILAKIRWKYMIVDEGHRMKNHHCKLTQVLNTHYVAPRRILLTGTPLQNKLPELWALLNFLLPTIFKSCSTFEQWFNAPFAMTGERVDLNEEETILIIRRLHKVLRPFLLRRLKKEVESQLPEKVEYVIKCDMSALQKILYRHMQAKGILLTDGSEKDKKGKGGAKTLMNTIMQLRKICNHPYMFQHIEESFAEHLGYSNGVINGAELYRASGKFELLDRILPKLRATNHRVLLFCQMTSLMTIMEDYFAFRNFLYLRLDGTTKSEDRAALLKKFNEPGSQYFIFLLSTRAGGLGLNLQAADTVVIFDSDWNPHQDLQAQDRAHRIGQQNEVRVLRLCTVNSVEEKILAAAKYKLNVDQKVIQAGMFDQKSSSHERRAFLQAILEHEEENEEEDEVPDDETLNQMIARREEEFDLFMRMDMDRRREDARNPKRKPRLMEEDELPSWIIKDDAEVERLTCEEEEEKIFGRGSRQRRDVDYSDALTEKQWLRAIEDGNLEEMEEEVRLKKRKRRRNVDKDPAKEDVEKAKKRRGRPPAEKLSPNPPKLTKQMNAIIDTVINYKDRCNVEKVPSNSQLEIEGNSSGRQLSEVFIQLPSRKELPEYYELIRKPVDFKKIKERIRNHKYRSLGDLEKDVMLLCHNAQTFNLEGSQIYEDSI
Excerpt: FIG. 9A-C show representative data illustrating that AT-301 attenuates the ATPase activity of SMARCA2 in different DNA/chromatin substrates.
In brief, the disclosed ATPase assay is based on the inorganic phosphate (Pi) release from the enzymatic reaction, wherein the substrate 2-amino-6-mercapto-7-methylpurine ribose (MESG) is converted by purine phosphorylase (PNP) to ribose 1-phosphate and 2-amino-6-mercapto-7-methylpurine. This conversion changes the spectrophotometric shift of MSEG absorbance from 330 nm to 360 nm (FIG. 1C and FIG. 1D).
SMARCA2 can interact with nucleosomal, extra nucleosomal DNA, and a DNA wrapped around the histone octamer. These substrates were prepared, and the ATPase activity of SMARCA2 on these substrates were evaluated in the presence and absence of AT-301. Specifically, as shown in FIG. 9A-C, mononucleosome core particles (NCP) were reconstituted from purified histone octamer and 147 bp widom nucleosomal DNA. An electromobility shift assay (EMSA) was used to monitor the direct binding of SMARCA2 to NCP. […] The ATPase activity of SMARCA2 was also evaluated on alternative substrates (a 29-mer duplex DNA, 147 bp nucleosomal DNA, and reconstituted NCP).

ES3 cells = test: Live imaging of ES3 cells; assay type: cell-based
Method: In vivo live imaging of ES3 cells in the presence of AT-301 (IC50˜5 μM).
(§1) Briefly, human SMARCA2 was purified, and a high-throughput screen (HTS) of 40,000 compounds was conducted. […] In brief, cells were grown in RPMI media supplemented with 10% Fetal bovine serum (FBS), 1× penicillin, and streptomycin antibiotics. Cells were placed in an incubator with 5% C02 and 50% humidity. When cells reached 90% confluency, cells were harvested, washed twice in 1×PBS, counted using trypan blue exclusion method. Then cells were seeded in 96-well plates (duplicates, n=2) at the density of 20,000 cells per well. Allowed them to attach to the bottom of the well for 1 to 2 hrs and treated with different concentration of AT-301 compound starting at highest concentration of 10 micromolar to serial dilution of the compound to the lowest concentration of 0.039 micromolar. Cells treated with only DMSO were also included as negative control. Cells were monitored for 72 hrs. by live cell imaging method (Incucyte S3) taking images every two hours. The confluency was determined and plotted against time (hours) by using Prism software.

[1] = tested on: alveolar Rhabdomyosarcoma cell lines; test: Growth of Rhabdomyosarcoma cell lines, live cell imaging confluency; assay type: cell-based
Method: as §1
Assays were performed as detailed above for FIG. 4A-E.

D556 = test: Cell proliferation assay and IC50 measurement (PrestoBlue); assay type: cell-based; conditions: PrestoBlue cell viability
Method: (§2) FIG. 10A-C show representative data illustrating that AT-301 kills Ewing's, RMS, GBM, AML, and other cancer cells. Cell lines were treated with serial dilutions (2×) of AT-301, and IC50 values of each cell line were determined using PrestoBlue dye for cell viability following manufacturer's protocol (Invitrogen, A13261). See also Table 3.
(§3) DAOY, D556 cells: EMEM, 10% FBS, Penicillin (100 units/mL) and streptomycin (100 μg/mL) in the presence of 5% CO2.
(§4) Proliferation of adherent cells was determined on the IncuCyte live-cell imaging system (Essen BioScience). Cells were seeded on clear bottom 96 well plates at a seeding density of 2000 cells/well. Cells were allowed to attach overnight after which the medium was replaced with fresh medium containing serial dilutions (2×) of the compound or DMSO control. Percent confluence was calculated by the IncuCyte software from four different images per well from at least three replicate wells. For non-adherent cells, the 96-well plates were coated with poly-L-lysine before seeding to facilitate cell adhesion. At the end of the assay, dose-dependent cell viability was determined by staining the cells with PrestoBlue (Invitrogen, A13261) as per manufacturer's instructions and IC50 was calculated (FIG. 10).

DAOY = test: as above; assay type: cell-based; conditions: Homo sapiens, PrestoBlue cell viability
Method: as §2, §3, §4

endometrial cancer cells = test: Growth/killing of endometrial cancer cells; assay type: cell-based; conditions: dose-dependent
Method: as §4
Referring to FIG. 10A, AT-301 kills a variety of cancer cells (brain tumors, rhabdomyosarcoma, nonsmall cell lung cancer, leukemia, and Ewing's Sarcoma. We also tested whether AT-301 can kill cells representing gynecological cancers (ovarian and endometrial cancer). As shown in FIG. 10B-C, AT-301 kills a variety of ovarian and endometrial cancer cells.

[2] = tested on: FLI1 expression in ES7 cells; test: Immunoblot of oncogenic transcription factor levels; assay type: cell-based; conditions: 4 and 12 hrs of treatment
Excerpt: (§5) FIG. 12A-D show representative data illustrating that the assembly of BAF complex is perturbed by AT-301 inhibitor without perturbing oncogenic fusion protein levels. Referring to FIG. 12A and FIG. 12B, immunoblots of RH41 (FIG. 12A) and ES7 (FIG. 12B) cells after 4 and 12 hrs of treatment with AT-301 or DMSO. FOXO1 and FLI1 expression remains unchanged upon AT-301 treatment. Referring to FIG. 12C and FIG. 12D, gel filtration chromatography of ES3 (FIG. 12C) and RH41 (FIG. 12D) cell nuclear lysates after BAF-X-1 treatment are shown. […]
(§6) Next, whether the levels of oncogenic transcription factors in RH41 and ES7 cells change upon treatment with AT-301 was tested. Harvested cells were lysed in NP-40 lysis buffer (Thermo Scientific, J60766) supplemented with protease and phosphatase inhibitor (Halt Protease and phosphatase inhibitor cocktail (Thermo Scientific). Total protein was quantified using Bradford assay (Biorad), and 20 μg of it was denatured and separated on pre-cast tris-acetate or tris-glycine gels (Invitrogen). The protein was then transferred to nitrocellulose membranes (Cytiva) and subsequently probed using primary and secondary antibodies. The signal was detected using Clarity and Clarity Max ECL substrates (Biorad) and imaged on Biorad ChemiDoc).

[3] = tested on: FOXO1 expression in RH41 cells; test: as above; assay type: cell-based; conditions: 4 and 12 hrs of treatment
Excerpt: as §5, §6

Ewing's sarcoma (EW13) = test: Patient-derived xenograft (PDX) mouse model, single mouse testing (SMT); assay type: in vivo; conditions: 50 mg/kg orally three times a week for four weeks
Method: To assess the antitumor activity of AT-301 in a mouse model, a single mouse testing (SMT) experiment was used. SMT has 95% concordance with conventional testing and allows far greater inclusion of genetic/epigenetic heterogeneity. A patient-derived xenograft (PDX) mouse model (C.B.17 scid females (Envigo, IN)) of Ewing's sarcoma (EW13) was used in the SMT experiment. 50 mg/kg of AT-301 (formulated in 30% captisol) or just vehicle (30% captisol) was administered orally three times a week for four weeks.

- IC50 (ES3 cells): ~5 µM
SMILES: Clc1ccc(CNc2nc(NC3CCCC3)nc3ccccc23)cc1Cl [AT-301, N^2-cyclopentyl-N^4-(3,4-dichlorobenzyl)quinazoline-2,4-diamine]
- ATPase activity of SMARCA2 on different substrates (SMARCA2): uniformly reduced; also recorded: significantly attenuated
- Growth of Rhabdomyosarcoma cell lines ([1]; 2 other lines): moderately attenuated the growth
- Growth of alveolar Rhabdomyosarcoma cell lines ([1]; 4 alveolar Rhabdomyosarcoma cell lines): attenuate the growth; also recorded: strongly attenuated the growth
- IC50 (D556): 3.02 µM
- IC50 (DAOY): 4.19 µM
- Growth/killing of endometrial cancer cells (endometrial cancer cells): kills; also recorded: inhibits the growth
- Expression of oncogenic transcription factor (FLI1) [2]: does not alter the expression
- Expression of oncogenic transcription factor (FOXO1) [3]: does not alter the expression
- Tumor growth (Ewing's sarcoma (EW13); 30% captisol, EW13 PDX in C.B.17 scid females): completely suppressed the tumor growth
- Body weight (Ewing's sarcoma (EW13); EW13 PDX mouse): without any apparent loss in body weight
